According to patent US20100311714A1, “1H-IMIDAZO[4,5-c]QUINOLINONE COMPOUNDS” (priority 2009, published 2010):

What was measured:
[1] = Parallel Artificial Membrane Permeability Assay (PAMPA) at pH 6.8; format: physicochemical
Method in brief: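 PAMPA permeability measured at pH 6.8 following the Wohnsland and Faller method; value reported as log Pe.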

[2] = system: PKB Ser473 phosphorylation in Rat1-myr-HA-p110 beta cells; test: Reverse protein array, PKB Ser473 phosphorylation in Rat1-myr-HA-p110 beta cells; format: cell-based; settings: Rattus norvegicus, 0.5 h, 30 minutes compound incubation, read-out: p-PKB/IC50_beta

HT-Perm logPe pH6.8 [1] | IC50 [2] [nM] | Compound
−3.7 | 53.4 | COCc1ncc(-c2ccc3ncc4c(c3c2)n(-c2ccc(N3CCC3)nc2C)c(=O)n4C)cc1OC(C)C [Example 23.2, 1-(6-Azetidin-1-yl-2-methyl-pyridin-3-yl)-8-(5-isopropoxy-6-methoxymethyl-pyridin-3-yl)-3-methyl-1,3-dihydro-imidazo[4,5-c]quinolin-2-one]
−5 | < 4.57 | CNc1ncc(-c2ccc3ncc4c(c3c2)n(-c2ccc(N3CC[C@H](O)C3)nc2C)c(=O)n4C)cn1 [Example 32.1, 1-[6-((S)-3-Hydroxy-pyrrolidin-1-yl)-2-methyl-pyridin-3-yl]-3-methyl-8-(2-methylamino-pyrimidin-5-yl)-1,3-dihydro-imidazo[4,5-c]quinolin-2-one]
−7.8 | 374 | COc1cc(-c2ccc3ncc4c(c3c2)n(-c2ccc(N3CC(O)C3)nc2C)c(=O)n4C)cnc1CO [Example 29.5, 1-[6-(3-Hydroxy-azetidin-1-yl)-2-methyl-pyridin-3-yl]-8-(6-hydroxymethyl-5-methoxy-pyridin-3-yl)-3-methyl-1,3-dihydro-imidazo[4,5-c]quinolin-2-one]
−4.5 | 30.6 | Cc1nc(N2CCCC2)ccc1-n1c(=O)n(C)c2cnc3ccc(-c4cncc(C(C)(C)O)c4)cc3c21 [Example 25.3, 8-[5-(1-Hydroxy-1-methyl-ethyl)-pyridin-3-yl]-3-methyl-1-(2-methyl-6-pyrrolidin-1-yl-pyridin-3-yl)-1,3-dihydro-imidazo[4,5-c]quinolin-2-one]
−5.1 | 11.3 | CNc1ncc(-c2ccc3ncc4c(c3c2)n(-c2ccc(N3CCC(O)C3)nc2C)c(=O)n4C)cn1 (centres unmarked) [Example 27.2, 1-[6-(3-Hydroxy-pyrrolidin-1-yl)-2-methyl-pyridin-3-yl]-3-methyl-8-(2-methylamino-pyrimidin-5-yl)-1,3-dihydro-imidazo[4,5-c]quinolin-2-one]
−4.9 | < 4.57 | CNc1ncc(-c2ccc3ncc4c(c3c2)n(-c2ccc(N(C)CCO)nc2C)c(=O)n4C)cn1 [Example 26.2, 1-{6-[(2-Hydroxy-ethyl)-methyl-amino]-2-methyl-pyridin-3-yl}-3-methyl-8-(2-methylamino-pyrimidin-5-yl)-1,3-dihydro-imidazo[4,5-c]quinolin-2-one]
−4.2 | 103 | COCc1ncc(-c2ccc3ncc4c(c3c2)n(-c2ccc(N3CCC3)nc2C)c(=O)n4C)cc1OC [Example 23.6, 1-(6-Azetidin-1-yl-2-methyl-pyridin-3-yl)-8-(5-methoxy-6-methoxymethyl-pyridin-3-yl)-3-methyl-1,3-dihydro-imidazo[4,5-c]quinolin-2-one]
−4.3 | 61 | CCOc1cc(-c2ccc3ncc4c(c3c2)n(-c2cccnc2C)c(=O)n4C)cnc1COC [Example 2.28, 8-(5-Ethoxy-6-methoxymethyl-pyridin-3-yl)-3-methyl-1-(2-methyl-pyridin-3-yl)-1,3-dihydro-imidazo[4,5-c]quinolin-2-one]
−5.5 | 68.6 | Cc1nc(F)ccc1-n1c(=O)n(C)c2cnc3ccc(-c4cncc(C(C)(C)O)c4)cc3c21 [Example 7.8, 1-(6-Fluoro-2-methyl-pyridin-3-yl)-8-[5-(1-hydroxy-1-methyl-ethyl)-pyridin-3-yl]-3-methyl-1,3-dihydro-imidazo[4,5-c]quinolin-2-one]
−6.1 | 5.3 | Cc1nc(N2CCN(C)C(=O)C2)ccc1-n1c(=O)n(C)c2cnc3ccc(-c4cnc(N)c(C(F)(F)F)c4)cc3c21 [Example 21.1, 8-(6-Amino-5-trifluoromethyl-pyridin-3-yl)-3-methyl-1-[2-methyl-6-(4-methyl-3-oxo-piperazin-1-yl)-pyridin-3-yl]-1,3-dihydro-imidazo[4,5-c]quinolin-2-one]
